Experimental data as given in patent publication US20250034520A1, “INCREASING DEVELOPMENTAL POTENTIAL OF HUMAN PREIMPLANTATION EMBRYOS BY REDUCING GENETIC INSTABILITY, ANEUPLOIDIES AND CHROMOSOMAL MOSAICISM” (THE TRUSTEES OF COLUMBIA UNIVERSITY IN THE CITY OF NEW YORK, priority 2022, published 2025).

Experiments:
Assay type in all cases: cell-based
mouse 1-cell embryos = experiment: timing of mitotic entry in mouse 1-cell embryos; details: application in G2 phase, depending on the time point of application
Procedure: (§1) Embryos, mouse and human, were cultured in Global Total (Life-Global) for the duration of the experiments and with added compounds as outlined below. Incubation in RNA polymerase inhibitors triptolide (1 mM) or alpha amanitin (20 mg/ml) was performed from the 2PN stage (day1) to day3 of human development. Incubation in aphidicolin was performed at 2 mM. […] Mirin was used at a concentration of 50 mM. Olaparib was used to inhibit PARP at a concentration of 10 mM. All experiments were conducted during incubation at 37° C. with 5% CO2 and 19-20% O2. Chemical stock solutions were prepared in DMSO at concentrations at least 1000× higher than the final concentration.
Mouse oocytes were activated at 1-6 hours post retrieval using 2 mM ionomycin (Sigma Aldrich) in Global Total medium for 5 minutes at 37° C. followed by culture in 10 mM puromycin and 5 mg/ml cytochalasin B for 3 hours, then cytochalasinB only for 2 hours and 10 minutes to prevent second polar body extrusion.

mouse 2-cell embryos = experiment: single-cell sequencing chromosome content analysis, mouse 2-cell embryos
Procedure: as §1
Single cells from blastomeres were collected on the heated stage (Tokai Hit) of an Olympus IX71 inverted microscope equipped with Narishige micromanipulators and a zona pellucida laser (Hamilton-Thorne). Single nuclei were isolated from blastomeres by lysis and dissection of different nuclei using two […] diameter Piezo micropipettes and Holding pipette (Origio). Single embryo cells or nuclei were placed manually in single wells of a 96-well plate containing 9 ml of lysis buffer, prepared as a master mix of 798 ml H2O, 6 ml of 10 mg/mL Proteinase K solution (Sigma-Aldrich), and 96 ml 10× Single Cell Lysis and Fragmentation buffer (Sigma-Aldrich). Single cells/single nuclei were lysed by heating 96-well plates containing single cells/single nuclei at 50° C. for 1 hour, followed by incubation at 99° C. for four minutes using a PCR thermocycler. Single-cell/single-nuclei whole genome amplification (WGA) using degenerate oligo-nucleotide priming PCR (DOP-PCR) was performed using the SEQPLEX Enhanced DNA Amplification Kit (SEQXE, Sigma) according to the manufacturer's instructions. In addition, a modified version of the DOP-PCR protocol that allows inline indexing of WGA DNA was also applied. WGA DNA was subsequently processed for Illumina library sequencing preparation using standard TruSeq indexing methods via the NEBNext Ultra II DNA Library Prep Kit for Illumina (New England Biolabs). NEBNext Multiplex Oligos for Illumina (96 index primers) were used for four amplification cycles. Library DNA was quantified using Qubit dsDNA HS Assay Kit (Invitrogen, Carlsbad, CA, USA) and library size distribution was confirmed using a 2100 Bioanalyzer DNA 1000 Kit (Agilent, Santa Clara, CA, USA). A unimodal curve centered around 300-500 bp was scored as a successful library preparation. Subsequently, 30 mL of each pooled library was sent for sequencing at a concentration of 20 ng/ml. Mutiplex sequencing was performed using Illumina HiSeq 2500 single end indexed run (SR100) while targeting a coverage of approximately 1 million reads per cell/nuclei, sufficient for quantitative genome-wide copy number analysis.
Analysis of DNA sequencing data was performed as previously described (Baslan et al., 2015) with minor modifications as outlined below. Briefly, multiplex sequencing data were demultiplexed according to unique barcodes with reads assigned to their respective single-cell or single-nuclei. Unique reads were aligned to the reference human and mouse genome builds, hg19 and mm9, respectively. Each genome was partitioned into 5000 bins using a previously described algorithm (Varbin) that corrects for genome sequence mappability (Baslan et al., 2012; Navin et al., 2011). Uniquely mapped reads were sorted, indexed and subsequently counted within the partitioned genomic bins. For single-cell copy number inference, read count data were normalized genome-wide followed by CBS segmentation (Olshen et al., 2004) and transformed into integer copy number states using a least-squares fit approach (Baslan et al., 2015).

human zygotes = experiment: DNA damage foci immunostaining in human zygotes/parthenotes
Procedure: as §1
Artificial activation of human MII oocytes was performed using two pulses of 2.7 kV/cm at 50 ms using ECFG21 (Nepagene) in fusion buffer consisting of 0.25 M d-sorbitol buffer containing 0.1 mM calcium acetate, 0.5 mM magnesium acetate, 0.5 mM HEPES, and 1 mg ml^−1 fatty-acid-free BSA as previously described (Tachibana et al., 2013). Thereafter, oocytes were incubated for 3.5-4 h in 10 mg/ml puromycin, followed by a wash step and following culture in Global total.
Following the experimental exposures, mouse and human embryos were fixed in 2% paraformaldehyde (PFA) and 0.25% Triton X-100 in PBS for 10 minutes at room temperature, serially washed in phosphate-buffered solution (PBS) at room temperature, then stored in PBS at 4° C. until staining and imaging. Embryos were placed in 10-20 ml droplets of primary antibody solution within plastic tissue culture dishes covered with mineral oil for 1 hour at room temperature, serially washed (×2) in PBS containing 0.01% Triton X-100 to prevent embryos sticking to oil, then transferred to 10-20 ml secondary antibody solution and Hoechst (dilution 1:500) for 30 minutes. Embryos were then serially washed (×2) and placed in 5 ml droplets of PBS with 0.5% serum albumin in uncoated glass bottom dishes (Mattek) covered with embryo culture oil for imaging. The following primary antibodies were used across experiments as described above: Oct-4, γH2AX, RPA32, RPA32 S4/S8, RPA32 S33, 53BP1, RAD51, Centromere, and phospho-CHK1. […] The appropriate secondary antibodies conjugated with Alexa Fluor 488, Alexa Fluor 555, CF 568, or Alexa Fluor 647 were diluted at 1:500-1:1000. Ethynyl deoxyuridine (EdU) labeling of zygotes and embryos was performed using the labeling kit (Thermo Fisher Scientific) as described by the manufacturer. 10 mM EdU was added to culture medium for 1 h at the indicated time points, and cells were harvested and fixed thereafter. 5-ethynyl uridine (EU) labeling was performed by incubating day3 cleavage stage embryos for 4 hours in Global total containing 0.2 mM EU.
Embryos were imaged with confocal microscopy using a Zeiss LSM (LSM 710) at a magnification of 63× and the Zeiss Zen software. Images were obtained using 488-, 543- and 633-nm lasers and bright-field microscopy. The number of confocal sections was adjusted to capture the entire nucleus or the entire embryo according to the experimental design as described above. Cell numbers and staining foci numbers were counted manually. Nuclei were identified by the presence of Hoechst33342. Foci were identified if at least 3× greater intensity than nuclear average, spherical in appearance, and overlapping with Hoechst33342 staining. Inner cell masses were identified by the presence of Oct4 within a blastocyst embryo. Active DNA replication was identified by the presence of EdU. DNA damage was identified by the detection of γH2AX and RPA foci within the nucleus. Mechanisms of DNA repair were identified through the detection of RPA S4/S8, RPA S33, Rad51 and 53BP1 foci within the nucleus.

[1] = combined aphidicolin exposure and G2 checkpoint inhibition
[2] = human, aphidicolin incubation in G2 phase

Compound: C[C@@]1(CO)[C@H](O)CC[C@@]2(C)[C@H]1CC[C@H]1C[C@@H]3C[C@@]12CC[C@]3(O)CO [aphidicolin]
- mitotic entry (mouse 1-cell embryos): inhibited
- chromosomal abnormalities per cell (mouse 2-cell embryos; aphidicolin-treated): 0.62 per cell
- blastomeres showing aneuploidy (mouse 2-cell embryos; aphidicolin-treated, controls 98% normal): 33%
- aneuploidies per cell (mouse 2-cell embryos; both aphidicolin and G2 checkpoint inhibitor): 2.1 per cell
- blastomeres showing aneuploidy (mouse 2-cell embryos; combination of aphidicolin and G2 checkpoint inhibition): 64.5%
- chromosomes with aneuploidies per cell (mouse 2-cell embryos; [1]): 2 chromosomes per cell
- euploid mouse 2-cell embryos (mouse 2-cell embryos; [1]): 35.5%
- time to formation of foci for γH2AX and RPA32 (human zygotes; aphidicolin from 15.5 h post activation): ≤ 6 h
- RPA32-positive foci per haploid nucleus, average (human zygotes; human, aphidicolin incubation): 1.8 per haploid nucleus
- γH2AX foci positive for RPA32 (human zygotes; human, aphidicolin incubation): Approximately 10%
- mean γH2AX foci (human zygotes; [2]): 21
- γH2AX foci, range (human zygotes; [2]): 0-51
